system: KYSE-150 cell line; assay: In vitro cell-based assay, KYSE-150 cell line: BrdU cell proliferation ELISA; settings: Homo sapiens; KYSE-150 cells, 168 hr, BrdU incorporation
Experimental: The primary cellular assay for JMJD2C inhibition is an assay which measures cellular proliferation via Bromodeoxyuridine (BrdU) incorporation after 168 hr of compound incubation. This assay is a quantitative ELISA assay measuring DNA incorporation of BrdU during S-phase as a direct readout of cellular proliferation. The KYSE-150 cell line is a JMJD2C gene amplified cell line.
This is a colorimetric immunoassay for the quantification of cell proliferation. Cells treated for 168 hr with test compounds are assayed for their ability to go through S-phase as a measure of their proliferative potential.
The human KYSE-150 (SMAD4 mut, TP53 mut) esophageal carcinoma cell line was seeded at 2,000 cells/well on a 96-well tissue culture treated plate. After an overnight incubation, cells were treated with a test compound in an 11 point dilution series with final concentrations ranging from 100 μM to 2 nM. Cells were then incubated in the presence of compound for 168 hr. After compound incubation, the cells were assayed using a BrdU Cell Proliferation ELISA (Roche). The cells were first incubated with BrdU labeling reagent for 2 hr. After 2 hr, these BrdU incorporated cells were fixed and denatured, probed with an anti-BrdU-Peroxidase antibody for 1.5 hr and washed. Finally, a tetramethylbenzidine peroxidase substrate was added to each well for 15 min followed by H2SO4 stop solution. The plate is read at 450 nm, and the raw optical density data is transferred into XLFit (IDBS) for IC50 calculation using the formula: fit=(D+((Vmax*(x^n))/((x^n)+(Km^n))))

First: COC(=O)c1ccnc2cc(Cc3ccc(F)c(F)c3)[nH]c12 [Example 125, methyl 2-(3,4-difluorobenzyl)-1H-pyrrolo[3,2-b]pyridine-7-carboxylate]
Second: COC(=O)c1ccnc2cc(Cc3ccc(Cl)c(Cl)c3)[nH]c12 [Example 129, methyl 2-(3,4-dichlorobenzyl)-1H-pyrrolo[3,2-b]pyridine-7-carboxylate]
The IC50 of the first is higher: 1000 to 10000 nM for the first, less than 100 nM for the second.

First: COC(=O)c1ccnc2cc(Cc3ccc(Cl)c(OC)c3)[nH]c12 [Example 127, methyl 2-(4-chloro-3-methoxybenzyl)-1H-pyrrolo-[3,2-b]-pyridine-7-carboxylate]
Second: COC(=O)c1ccnc2cc(Cc3ccc(Cl)c(C)c3)[nH]c12 [Example 133, methyl-2-(4-chloro-3-methylbenzyl)-1H-pyrrolo-[3,2-b]pyridine-7-carboxylate]
The IC50 of the first is lower: less than 100 nM for the first, 100 to 1000 nM for the second. The first is the more potent here.

`COC(=O)c1ccnc2cc(Cc3cc(F)c(Cl)c(Cl)c3)[nH]c12` [Example 131, methyl 2-(3,4-dichloro-5-fluorobenzyl)-1H-pyrrolo-[3,2-b]pyridine-7-carboxylate] and `COC(=O)c1ccnc2cc(Cc3ccc(Cl)c(C(F)(F)F)c3)[nH]c12` [Example 135, methyl 2-[4-chloro-3-(trifluoromethyl)benzyl]-1H-pyrrolo[3,2-b]pyridine-7-carboxylate] cannot be ordered by IC50: less than 100 nM for the first, less than 100 nM for the second.

`COC(=O)c1ccnc2cc(Cc3ccc(Cl)c(OCC4CC4)c3)[nH]c12` [Example 137, methyl 2-[4-chloro-3-(cyclo-propylmethoxy)benzyl]-1H-pyrrolo[3,2-b]pyridine-7-carboxylate] and `COC(=O)c1ccnc2cc(Cc3ccc(Cl)c(OCC(F)(F)F)c3)[nH]c12` [Example 139, methyl-2-[4-chloro-3-(2,2,2-trifluoroethoxy)benzyl]-1H-pyrrolo[3,2-b]pyridine-7-carboxylate] cannot be ordered by IC50: less than 100 nM for the first, less than 100 nM for the second.

`COC(=O)c1ccnc2cc(Cc3ccc(Cl)c(OC(F)(F)F)c3)[nH]c12` [Example 141, methyl-2-[4-chloro-3-(trifluoromethoxy)benzyl]-1H-pyrrolo[3,2-b]pyridine-7-carboxylate] and `CNC(=O)c1ccnc2cc(Cc3ccc(Cl)c(OC(F)(F)F)c3)[nH]c12` [Example 144, 2-[4-chloro-3-(trifluoro-methoxy)benzyl]-N-methyl-1H-pyrrolo-[3,2-b]pyridine-7-carboxamide] cannot be ordered by IC50: less than 100 nM for the first, less than 100 nM for the second.

`CNC(=O)c1ccnc2cc(Cc3ccc(Cl)cc3)[nH]c12` [Example 143, 2-[4-chloro-benzyl]-N-methyl-1H-pyrrolo[3,2-b]pyridine-7-carboxamide] was tested, and the IC50 was 100 to 1000 nM.

target: Jarid1A (Homo sapiens (Human), UniProt P29375); assay: Jarid1A in vitro enzyme inhibition assay (TR-FRET); assay type: biochemical; settings: not given
Sequence (P29375 1-1090): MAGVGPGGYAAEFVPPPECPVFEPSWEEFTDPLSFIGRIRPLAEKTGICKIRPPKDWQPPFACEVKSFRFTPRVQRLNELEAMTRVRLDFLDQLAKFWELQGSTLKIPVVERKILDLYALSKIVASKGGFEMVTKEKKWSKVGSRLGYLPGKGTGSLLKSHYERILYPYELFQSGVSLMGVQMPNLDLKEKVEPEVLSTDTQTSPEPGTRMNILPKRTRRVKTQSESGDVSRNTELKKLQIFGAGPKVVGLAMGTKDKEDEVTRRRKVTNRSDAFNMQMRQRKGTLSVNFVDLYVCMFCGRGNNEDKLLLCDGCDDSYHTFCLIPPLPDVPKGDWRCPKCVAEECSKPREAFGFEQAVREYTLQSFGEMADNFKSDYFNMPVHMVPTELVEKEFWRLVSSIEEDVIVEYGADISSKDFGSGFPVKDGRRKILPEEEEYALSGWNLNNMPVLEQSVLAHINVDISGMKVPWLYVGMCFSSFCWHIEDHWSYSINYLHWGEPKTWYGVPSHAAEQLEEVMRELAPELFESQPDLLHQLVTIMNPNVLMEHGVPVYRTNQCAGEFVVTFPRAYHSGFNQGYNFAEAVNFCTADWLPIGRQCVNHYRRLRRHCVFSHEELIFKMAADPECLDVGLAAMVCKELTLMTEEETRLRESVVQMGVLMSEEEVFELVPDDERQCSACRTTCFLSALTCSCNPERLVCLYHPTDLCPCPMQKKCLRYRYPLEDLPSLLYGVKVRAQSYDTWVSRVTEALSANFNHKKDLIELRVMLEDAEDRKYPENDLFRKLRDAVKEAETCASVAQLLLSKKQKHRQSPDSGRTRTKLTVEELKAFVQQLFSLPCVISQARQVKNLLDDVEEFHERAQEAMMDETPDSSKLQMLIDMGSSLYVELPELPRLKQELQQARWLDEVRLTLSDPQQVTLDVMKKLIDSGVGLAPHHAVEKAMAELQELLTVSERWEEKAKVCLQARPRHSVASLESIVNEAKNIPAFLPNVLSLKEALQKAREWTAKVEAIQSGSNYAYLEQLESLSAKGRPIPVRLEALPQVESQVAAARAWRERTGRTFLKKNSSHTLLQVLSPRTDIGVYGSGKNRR
Experimental: (§1) This assay determines the ability of a test compound to inhibit Jarid1A, Jarid1B, JMJD2C, and JMJD2A demethylase activity.
The enzymatic assay of Jarid1A activity is based upon Time Resolved-Fluorescence Resonance Energy Transfer (TR-FRET) detection.
The assay reaction was initiated by the following: 2 μl of the mixture of 900 nM H3K4me3-biotin labeled peptide and 6 μM alpha-ketoglutaric acid with 2 μl of 11-point serial diluted inhibitor in 3% DMSO was added to each well of plate, followed by the addition of 2 μl of 3 nM Jarid1A to initiate the reaction. The reaction mixture was incubated at room temp for 30 min, and terminated by the addition of 6 μl of 5 mM EDTA in LANCE detection buffer containing 50 nM Phycolink Streptavidin-allophycocyanin and 2 nM Europium-anti-H3K4me1-2 antibody.

Molecule “(±)-methyl 2-(1-hydroxy-2-methylpropyl)-1H-pyrrolo[3,2-b]-pyridine-7-carboxylate [Example 30]” has an IC50 of 100 to 1000 nM.

target: Jarid1B (Homo sapiens (Human), UniProt Q9UGL1); assay: Jarid1B in vitro enzyme inhibition assay (TR-FRET); assay type: biochemical; settings: not given
Sequence (Q9UGL1 2-751): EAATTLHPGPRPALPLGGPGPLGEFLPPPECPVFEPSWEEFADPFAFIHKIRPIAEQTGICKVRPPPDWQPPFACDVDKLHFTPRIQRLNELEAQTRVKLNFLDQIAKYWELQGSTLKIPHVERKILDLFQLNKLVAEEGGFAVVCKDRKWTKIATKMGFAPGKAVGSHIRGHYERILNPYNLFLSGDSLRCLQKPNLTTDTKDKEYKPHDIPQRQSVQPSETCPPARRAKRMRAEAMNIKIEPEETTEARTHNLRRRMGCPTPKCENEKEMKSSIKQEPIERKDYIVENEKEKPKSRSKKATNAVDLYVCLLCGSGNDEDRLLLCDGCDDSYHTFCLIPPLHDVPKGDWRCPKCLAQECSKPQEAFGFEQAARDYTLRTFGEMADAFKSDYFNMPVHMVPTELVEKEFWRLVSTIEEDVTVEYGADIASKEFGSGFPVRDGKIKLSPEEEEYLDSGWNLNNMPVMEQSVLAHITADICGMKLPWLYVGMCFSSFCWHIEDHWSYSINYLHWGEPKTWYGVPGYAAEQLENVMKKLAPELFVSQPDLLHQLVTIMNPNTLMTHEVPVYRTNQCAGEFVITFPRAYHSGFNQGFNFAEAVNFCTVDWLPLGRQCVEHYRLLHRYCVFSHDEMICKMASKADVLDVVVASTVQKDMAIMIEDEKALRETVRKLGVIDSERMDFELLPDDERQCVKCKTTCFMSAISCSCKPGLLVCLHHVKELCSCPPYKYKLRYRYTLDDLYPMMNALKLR
Experimental: as §1
The reaction mixture was incubated at room temp for 30 min, and terminated by the addition of 6 μl of 5 mM EDTA in LANCE detection buffer containing 50 nM Phycolink Streptavidin-allophycocyanin and 2 nM Europium-anti-H3K4me1-2 antibody.

In the case of “(±)-methyl 2-(1-hydroxy-2-methylpropyl)-1H-pyrrolo[3,2-b]-pyridine-7-carboxylate [Example 30]”, the IC50 is reported as less than 100 nM.

target: JMJD2C (Homo sapiens (Human), UniProt Q9H3R0); assay: JMJD2C in vitro enzyme inhibition assay (TR-FRET); assay type: biochemical; settings: not given
Sequence (Q9H3R0 2-372): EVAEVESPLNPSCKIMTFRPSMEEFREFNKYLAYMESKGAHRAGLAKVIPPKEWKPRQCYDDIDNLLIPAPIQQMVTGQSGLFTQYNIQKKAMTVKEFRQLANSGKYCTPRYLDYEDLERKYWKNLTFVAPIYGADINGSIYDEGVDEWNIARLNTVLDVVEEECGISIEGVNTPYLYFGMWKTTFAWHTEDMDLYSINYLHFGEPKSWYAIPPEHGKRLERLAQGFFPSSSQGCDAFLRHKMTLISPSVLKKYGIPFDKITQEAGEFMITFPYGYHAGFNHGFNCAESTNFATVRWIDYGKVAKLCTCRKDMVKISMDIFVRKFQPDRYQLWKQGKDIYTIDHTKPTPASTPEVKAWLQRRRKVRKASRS
Experimental: as §1
Reaction product was determined quantitatively by TR-FRET after the addition of detection reagent Phycolink Streptavidin-allophycocyanin (Prozyme) and Europium-anti-di-methylated histone H3 lysine 9 (H3K9me2) antibody (PerkinElmer) in the presence of 5 mM EDTA in LANCE detection buffer (PerkinElmer) at a final concentration of 50 nM and 1 nM, respectively.

Work on “(±)-methyl 2-(1-hydroxy-2-methylpropyl)-1H-pyrrolo[3,2-b]-pyridine-7-carboxylate [Example 30]” yielded an IC50 of less than 100 nM.
